Experimental data from patent US7300946B2, “N-(substituted arylmethyl)-4-(disubstituted methyl) piperidines and pyridines” (Bayer CropScience AG, priority 2002, dated 2007).

Test system: tobacco budworm (Heliothis virescens [Fabricius])
Experiment: surface-treated diet test against the tobacco budworm
Type: in vivo
Conditions: tobacco budworm second instar larvae, 0.25 millimoles of candidate insecticide on the surface of the diet, five-day exposure; for Percent Mortality: compared to total number of insects infested; for Percent Growth Inhibition: inhibition of insect weight relative to untreated controls
Method in brief: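 Wheat germ artificial diet surface-treated with 40 µL of 50 mM DMSO stock diluted 1:7 in 1:1 water/acetone (0.25 millimolar on diet), or sub-multiples for rate tests. One second-instar larva per well, 25° C, 60% RH, 5 days; percent weight inhibition vs DMSO controls and percent mortality.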

| SMILES | Percent Mortality (surface-treated diet) [%] | Percent Growth Inhibition (surface-treated diet) [%] | Percent Mortality [%] | Percent Growth Inhibition [%] |
| --- | --- | --- | --- | --- |
| CCCS(=O)(=O)NC(c1ccc(OC(F)(F)F)cc1)C1CCN(Cc2ccc(-c3nnn(C)n3)cc2)CC1 (stereo not drawn) [Compound 433, [(1-{[4-(2-methyl(1,2,3,4-tetraazol-5-yl))phenyl]methyl}(4-piperidyl))[4-(trifluoromethoxy)phenyl]methyl]propylsulfonylamide] | 100 | 100 | – | – |
| O=C(Nc1cccc(F)c1)OC(c1ccc(Cl)cc1Cl)C1CCN(Cc2ccc(Oc3ncccn3)cc2)CC1 (stereo not drawn) [Compound 719] | – | – | 100 | 100 |
| CCON=Cc1ccc(CN2CCC(C(OC(=O)Nc3cc(Cl)c(Cl)cc3Cl)c3ccc(C(F)(F)F)cc3)CC2)cc1 (stereo not drawn) [Compound 192] | 67 | 98 | – | – |
| FC(F)(F)c1ccc(OC(c2ccc(C(F)(F)F)cc2)C2CCN(Cc3ccc(Oc4ccccn4)cc3)CC2)cc1 (stereo not drawn) [Compound 455] | 100 | 100 | – | – |
| CCn1nnc(-c2ccc(CN3CCC(C(OC(=O)Nc4ccc(Cl)c(Cl)c4)c4ccc(C)cc4)CC3)cc2)n1 (stereo not drawn) [Compound 596] | 100 | 100 | – | – |
| CCON=Cc1ccc(CN2CCC(C(OC(=O)Nc3ccc(F)c(F)c3)c3ccc(OC(F)(F)F)cc3)CC2)cc1 (stereo not drawn) [Compound 195] | 100 | 100 | – | – |
